{
  "source": "paper PMC8647151",
  "about": "“PLK1‐dependent phosphorylation restrains EBNA2 activity and lymphomagenesis in EBV‐infected mice” (EMBO Reports, 2021)",
  "key": {"[1]": {"biological_target": "T1, PLK1 PBD (PLK1 residue 345‐603) (Homo sapiens, UniProt P53350)", "T1 construct": "His6 (N); made in house; host or cells: E. coli Rosetta (DE3)", "assay": "Isothermal titration calorimetry of EBNA2 heptapeptides with PLK1 PBD", "type": "binding", "conditions": "ITC200, 100 µM PBD in the cell titrated with 1 mM peptide, 25°C, triplicates", "protocol": "PLK1 frequently binds to phosphorylated substrates that are primed by cellular kinases like Cyclin B/CDK1. These substrates share a consensus motif [Pro/Phe]‐[Φ/Pro]‐[Φ]‐[Thr/Gln/His/Met]‐Ser‐[pThr/pSer]‐[Pro/X] (Φ represents hydrophobic and X represents any residue) specific for binding to the Polo‐box binding domain (PBD) of PLK1 (Elia et al, [2003a]). […] Mutants involving the respective residues were tested for PLK1 binding by transfection and co‐precipitation. […] To specify the contribution of EBNA2 residue S379 phosphorylation, a heptapeptide (PNTSSPS) and phospho‐heptapeptide (PNTSpSPS) were tested for PBD (PLK1 residue 345‐603) binding by isothermal titration calorimetry (ITC). […] GST‐EBNA2 342–422 expressed and purified from bacterial extracts did hardly pulldown any PLK1 from cellular extracts. […] Also, as shown by transfection, EBNA2 S379A binding to PLK1 was severely impaired (Fig 2H). We conclude that EBNA2 residue S379 is a PLK1 docking site primed by Cyclin B/CDK1 phosphorylation.\nExperiments were performed on a ITC200 instrument in triplicates and analyzed with the Malvern software. 100 µM PBD was provided in the cell and titrated with 1 mM concentration of wild type (PNTSSPS) or phosphopeptide (PNTSpSPS) with 25 times 1.5 µl injections at 25°C."}, "PLK1": {"tested_on": "PLK1", "assay": "Kinase assay on EBNA2/PLK1 co-precipitates with endogenous PLK1", "type": "biochemical", "conditions": "Volasertib 40 nM, [γ-32P] ATP", "protocol": "Monoclonal antibodies specific for His6 (2F12), EBNA2 (R3), glutathione S transferase (6G9), HA‐tag (3F10), BSA (3C5), and LMP1 (1G6) were provided by the antibody facility of the Helmholtz Center Munich. Commercial providers were as follows: GAPDH (Mab374; Merck Millipore), Flag (M2; Sigma‐Aldrich), PLK1 (ab17056; Abcam), GFP (7.1 and 13.1; Roche), and a p300‐specific serum (C20; Santa Cruz). For immunoprecipitations and Western blotting, the equivalent of 1 × 10^7 cells was lysed in 500 µl of lysis buffer (1% NP‐40, 10 mM Tris–HCl pH 7.4, 3% glycerol, 150 mM NaCl, 1 mM EDTA) supplemented with cOmplete protease inhibitor and PhoStop phosphatase inhibitor (Roche) incubated for 30 min at 4°C with constant rolling and for 30 min on ice. The lysate was cleared by centrifugation (16,000 g, 15 min). 1 µg of purified antibodies or 100 µl of hybridoma supernatants was coupled to Protein A or G beads and added to the cleared lysates, incubated for 2 h at 4°C, and washed with lysis buffer, and the protein was eluted with Laemmeli buffer. For GST‐pulldown, antibody‐coated beads were replaced by GST fusion protein‐coated beads. 20 µg protein of total cell lysates or 5 × 10^6 cell equivalents of one immunoprecipitation were loaded per lane. Signals on Western blots were detected by enhanced chemiluminescence (GE Healthcare) and exposed to films or Fusion FX (Vilber Lourmat). […]"}, "[2]": {"biological_target": "polo-like kinase 1 (PLK1) (UniProt P53350)", "assay": "GST pull-down from cell extract", "conditions": "reference: wild type, Cyclin B/CDK1 treated; sites S379"}, "[3]": {"biological_target": "PLK1 polo-box domain (PBD), PLK1 residue 345-603 (UniProt P53350)", "assay": "ITC; ITC200; 100 µM PBD in the cell titrated with 1 mM peptide, 25 injections of 1.5 µl, 25°C, triplicates"}, "[4]": {"biological_target": "GST-EBNA2 446-474 double-mutant S457A/T465V (Epstein-Barr virus (B95-8)) (UniProt P12978)", "assay": "pull-down; GST-EBNA2 446-474 (wt or phosphorylation mutants) on beads as bait; cellular proteins from DG75 cells; Western blot with GST- and p300-specific antibodies, signals quantified and normalized to wt"}},
  "note": "Where “and” joins values, the source holds several entries; their conditions need not be identical. Identical values can stand only once. Where a SMILES comes first, the peptide text is derived from it. [ ]: non-standard residue; d: D form. pS = N[C@@H](COP(=O)(O)O)C(=O)O",
  "data": [
    {"compound": "C[C@@H](O)[C@H](NC(=O)[C@H](CC(N)=O)NC(=O)[C@@H]1CCCN1)C(=O)N[C@@H](CO)C(=O)N[C@@H](COP(=O)(O)O)C(=O)N1CCC[C@H]1C(=O)N[C@@H](CO)C(=O)O", "note": "[PNTSpSPS] (H-PNTS[pS]PS-OH)", "values": [
      {"measurement": "Kd", "setting": "[1]; 25 x 1.5 µl injections, read-out: dissociation constant KD", "result": 8.19, "unit": "µM"}
    ]},
    {"compound": "CC[C@@H]1C(=O)N(C)c2cnc(Nc3ccc(C(=O)N[C@H]4CC[C@H](N5CCN(CC6CC6)CC5)CC4)cc3OC)nc2N1C(C)C", "note": "[Volasertib]", "values": [
      {"measurement": "phosphorylation of EBNA2 wt and candidate phosphorylation mutants in immunoprecipitates", "setting": "PLK1; EBNA2 mutants expressed in DG75 B cells, endogenous PLK1 trapped in precipitates", "result": "prevented phosphorylation of all EBNA2 proteins"},
      {"measurement": "EBNA2 phosphorylation in co-precipitates of EBNA2 and endogenous PLK1", "setting": "PLK1; co-precipitates from DG75 Dox HA-EBNA2 cells, 30 min, 37°C", "result": "prevented"}
    ]},
    {"compound": "EBNA2 (EBV nuclear antigen 2) 342-422 (from UniProt P12978) S379A, Cyclin B/CDK1 treated", "values": [
      {"measurement": "binding against the reference", "setting": "[2]", "result": "lost"}
    ]},
    {"compound": "EBNA2 phospho-heptapeptide PNTSpSPS", "values": [
      {"measurement": "stoichiometry N", "setting": "[3]", "result": 1}
    ]},
    {"compound": "PNTSSPS [unmodified heptapeptide of EBNA2 covering residue S379]", "values": [
      {"measurement": "PBD binding by ITC", "setting": "[1]", "result": "no interaction was detected"}
    ]},
    {"compound": "histone acetylase and co-activator p300, endogenous, Q09472 1-2414", "values": [
      {"measurement": "fold p300 binding relative to wt", "setting": "[4]", "result": "8 fold and 9 fold"}
    ]}
  ]
}
